Where “and” joins values, the source holds several entries; their conditions need not be identical. Equal values may be shown once. Read-outs that look alike come from different tables or passages of the source.
Key:
[1] = cited from earlier work; for Intracellular TFV-DP levels, higher: than levels without boosting
[2] = cited from earlier work
[3] = TFV and FTC concentrations in participant hair samples by LC/MS/MS; type: in vivo, human; details: for Difference of average hair concentration, TAF versus TDF: those on TAF relative to those on TDF
[4] = MSM on TAF/FTC/COBI/EVG versus TDF/FTC; cited from earlier work
[5] = Stability of TFV and FTC in stock solutions, processed samples and hair; type: physicochemical; details: for Stability in processed samples: a week in a refrigerator at 4°C; for Time stable in hair samples: room temperature, deviation less than ±15%
[6] = TDF/FTC to HIV-noninfected volunteers, directly-observed, 7 days a week; cited from earlier work
[7] = Plasma pharmacokinetics of TFV after TDF or TAF; type: in vivo, human; details: from ref 75 and ref 76
[8] = cited from earlier work; remark: listed apart in the source
[9] = 6 participants on TAF/FTC-based ART
[10] = 10 participants on TDF/FTC-based ART
[11] = TAF-based ART, with booster (COBI or RTV)
[12] = TDF-based ART, not receiving boosters
[13] = TDF-based ART, receiving boosters (COBI or RTV)
[14] = average of original and repeated, one line per patient
[15] = both TDF- and TAF-containing ART, not on booster drugs
[16] = both TDF- and TAF-containing ART, on concomitant boosters (COBI or RTV)
[17] = 200 μg/ml in 50% MeOH, at least 6 h at room temperature
[18] = TAF-based versus TDF-based regimen with darunavir/COBI/FTC
[19] = plasma, TAF (8 mg) compared with TDF (300 mg)
[20] = plasma, TAF (25 mg) compared with TDF (300 mg)
[21] = plasma, from TAF with darunavir/COBI/FTC
[22] = plasma, from TDF with darunavir/COBI/FTC

Row | Compound | acidic pKa [2] | Average hair concentration [3, 9] | Average hair concentration [3, 10] | Hair concentration [3, 11] [ng/mg hair] | Hair concentration ([3]; TAF-based ART, without booster) [ng/mg hair] | Hair concentration [3, 12] [ng/mg hair] | Hair concentration ([3]; TDF-based ART, receiving COBI) [ng/mg hair] | Hair concentration ([3]; TDF-based ART, receiving RTV) [ng/mg hair] | Hair concentration [3, 13] [ng/mg hair] | Hair concentration [3, 15] [ng/mg hair] | Hair concentration [3, 16] [ng/mg hair] | Difference of average hair concentration, TAF versus TDF [3] [%] | Stock solution stability [5, 17] [%] | Stability in processed samples [5] [%] | Stock solution stability ([5]; at least 1 year at 4°C) [%] | Time stable in hair samples [5] | also measured
1 | CC(Cn1cnc2c(N)ncnc21)OCP(=O)(O)OP(=O)(O)OP(=O)(O)O (stereo in doubt) [TFV-DP, tenofovir diphosphate] |  |  |  |  |  |  |  |  |  |  |  |  |  |  |  |  | Intracellular TFV-DP levels, higher ([1]; EVG/COBI/TAF/FTC): 5.3 fold; AUC of TFV-DP in PBMCs, higher than on TDF ([1]; TAF 8 mg versus TDF): 16.7%; AUC of TFV-DP in PBMCs, higher than on TDF ([1]; TAF 25 mg versus TDF): 613%; Intracellular TFV-DP levels, higher ([1]; darunavir/COBI/TAF/FTC): 652%
2 | Nc1nc(=O)n([C@@H]2CS[C@H](CO)O2)cc1F [FTC, emtricitabine] | 13.83 | 1.04 ± 0.83 ng/mg hair and 1.04 ng/mg hair | 0.846 ± 0.659 ng/mg hair and 0.846 ng/mg hair | 0.705 ± 0.233 | 1.37 ± 1.16 | 0.428 ± 0.343 | 1.26 ± 0.59 | 0.851 ± 0.807 | 1.03 ± 0.70 | 0.898 ± 0.925 | 0.930 ± 0.601 | 22.9 | > 95.0 | > 95.0 | > 95.0 | at least 18 months | basic pKa [2]: 2.4; FTC normalized average concentration, Average concentration [3, 14]: 0.988 ng/mg hair and 2.76 ng/mg hair and 1.05 ng/mg hair and 0.412 ng/mg hair and 1.86 ng/mg hair and 0.146 ng/mg hair and 0.840 ng/mg hair and 0.348 ng/mg hair and 0.694 ng/mg hair and 0.502 ng/mg hair; Median urine FTC concentrations between regimens [4]: not different
3 | Nc1[15n][13c](=O)[15n]([C@@H]2CS[C@H](CO)O2)cc1F [FTC-^13C,^15N2, emtricitabine-^13C,^15N2] |  |  |  |  |  |  |  |  |  |  |  |  | > 95.0 |  |  |  | 
4 | C[C@H](Cn1cnc2c(N)ncnc21)OCP(=O)(O)O [TFV, Tenofovir] | 1.61 | 0.0379 ± 0.0139 ng/mg hair and 0.0379 ng/mg hair | 0.0553 ± 0.0318 ng/mg hair and 0.0553 ng/mg hair | 0.0389 ± 0.0117 | 0.0370 ± 0.0185 | 0.0483 ± 0.0327 | 0.0844 ± 0.0357 | 0.0388 ± 0.0146 | 0.0584 ± 0.0336 | 0.0426 ± 0.0246 | 0.0525 ± 0.0295 | −31.5 | > 95.0 | > 95.0 | > 95.0 | at least 18 months | median TFV hair concentration [6]: 0.038 ng/mg hair; plasma AUC of TFV, boosted versus non-boosted, higher ([7]; TAF co-administrated with darunavir/COBI): approximately 5 times; plasma AUC of TFV, boosted versus non-boosted, higher ([7]; TDF co-administrated with darunavir/COBI): 1.95 times; TFV normalized average concentration, Average concentration [3, 14]: 0.0500 ng/mg hair and 0.0698 ng/mg hair and 0.0375 ng/mg hair and 0.0186 ng/mg hair and 0.0973 ng/mg hair and 0.0289 ng/mg hair and 0.0850 ng/mg hair and 0.0304 ng/mg hair and 0.0274 ng/mg hair and 0.0468 ng/mg hair; plasma Cmax, lower ([8]; 25 mg TAF compared with 300 mg TDF): 17 times; plasma exposure of TFV, lower ([8]; EVG/COBI/TAF/FTC compared to EVG/COBI/TDF/FTC): 91%; TFV concentrations in the plasma with TAF lower than with TDF ([8]; TAF versus TDF): 4 fold; TFV exposure in plasma, decrease ([8]; TAF-based compared with TDF-based treatment): approximately 90%; AUC of TFV, decrease [8, 18]: 90.9%; Cmax of TFV, decrease [8, 18]: 95.5%; AUC of TFV, decrease [8, 19]: 96.6%; Cmax of TFV, decrease [8, 19]: 98.3%; AUC of TFV, decrease [8, 20]: 86.0%; Cmax of TFV, decrease [8, 20]: 93.6%; AUC of TFV [8, 21]: 339 ng·h/mL; Cmax of TFV [8, 21]: 18.8 ng/mL; AUC of TFV [8, 22]: 3737 ng·h/mL; Cmax of TFV [8, 22]: 413 ng/mL; intracellular TFV concentration, increase ([1]; after switching from EVG/COBI/TDF/FTC to EVG/COBI/TAF/FTC): 141%; Median urine TFV concentrations, lower on TAF-based regimen than on TDF [4]: approximately 14 times
5 | CC(Cn1cnc2c(N)ncnc21)OCP(=O)(O)O (stereo not shown) [TFV-d6, Tenofovir-d6] |  |  |  |  |  |  |  |  |  |  |  |  | > 95.0 |  |  |  | 

— article PMC9131373 (Drug testing and analysis, 2021)
